Legend:
yeast expressing ExoS = test: yeast growth recovery of yeast expressing ExoS; settings: CUP1 promoter; library screened at 50 µM
ExoS ADPRT activity = ExoS ADPRT activity (Pseudomonas aeruginosa, UniProt G3XDA1); test: biochemical
ADPRT activity of ExoA = ADPRT activity of ExoA (Pseudomonas aeruginosa, UniProt P11439); test: biochemical
Chain of ADPRT activity of ExoA (P11439 26-638 limits assumed): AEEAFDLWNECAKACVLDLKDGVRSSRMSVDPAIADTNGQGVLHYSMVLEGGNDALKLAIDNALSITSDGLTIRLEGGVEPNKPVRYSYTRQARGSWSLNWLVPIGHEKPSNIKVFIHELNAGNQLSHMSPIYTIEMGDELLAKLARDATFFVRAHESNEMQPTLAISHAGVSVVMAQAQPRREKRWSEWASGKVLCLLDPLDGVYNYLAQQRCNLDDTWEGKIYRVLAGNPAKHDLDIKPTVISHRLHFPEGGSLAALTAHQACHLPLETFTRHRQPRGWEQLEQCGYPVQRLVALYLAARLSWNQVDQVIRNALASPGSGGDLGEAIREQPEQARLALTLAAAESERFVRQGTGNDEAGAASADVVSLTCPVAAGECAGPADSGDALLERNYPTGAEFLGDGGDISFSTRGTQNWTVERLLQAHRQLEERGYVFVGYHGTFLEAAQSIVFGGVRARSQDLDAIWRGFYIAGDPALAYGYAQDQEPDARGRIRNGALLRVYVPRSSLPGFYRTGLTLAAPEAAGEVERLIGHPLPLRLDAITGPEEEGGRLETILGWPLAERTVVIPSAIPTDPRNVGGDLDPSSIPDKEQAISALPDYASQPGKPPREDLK

Chain of ExoS ADPRT activity (G3XDA1 whole entry, looked up): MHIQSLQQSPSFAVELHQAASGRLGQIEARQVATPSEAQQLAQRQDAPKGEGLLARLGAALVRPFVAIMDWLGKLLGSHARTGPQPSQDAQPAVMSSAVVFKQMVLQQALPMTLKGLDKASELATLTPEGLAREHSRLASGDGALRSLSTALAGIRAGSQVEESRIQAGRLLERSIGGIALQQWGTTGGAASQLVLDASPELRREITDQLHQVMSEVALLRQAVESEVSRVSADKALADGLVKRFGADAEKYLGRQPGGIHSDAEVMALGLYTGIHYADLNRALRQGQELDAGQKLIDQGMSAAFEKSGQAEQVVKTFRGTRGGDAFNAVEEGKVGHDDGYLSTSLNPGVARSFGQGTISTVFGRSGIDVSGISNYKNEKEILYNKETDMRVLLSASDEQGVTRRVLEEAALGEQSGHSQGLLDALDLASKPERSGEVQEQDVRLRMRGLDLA

## CCOC(=O)n1c(=O)oc2cc([N+](=O)[O-])ccc21 [0469-0796]
Yeast expressing ExoS
  restoration of growth of yeast expressing ExoS (in words): restore yeast growth

## C=CCOC(=O)C1=C(C)NC(SCC(=O)Nc2nccs2)=C(C#N)C1c1cccs1 (stereo not shown) [4296-1011]
ExoS ADPRT activity
  IC50: 6 µM
Yeast expressing ExoS
  restoration of growth of yeast expressing ExoS (in words): restore yeast growth

## COc1ccc(-c2cc(=O)c3c(O)cc(O[C@@H]4O[C@H](CO[C@@H]5O[C@@H](C)[C@H](O)[C@@H](O)[C@H]5O)[C@@H](O)[C@H](O)[C@H]4O)cc3o2)cc1O [Diosmin, reference compound]
ExoS ADPRT activity
  IC50: 3 µM
Yeast expressing ExoS
  restoration of growth of yeast expressing ExoS (in words): restore yeast growth

## COc1cc(C)c(C(=O)O)c(O)c1 [Everninic acid]
ExoS ADPRT activity
  IC50: 21 µM
Yeast expressing ExoS
  restoration of growth of yeast expressing ExoS (in words): restore yeast growth

## COc1cc(O)c(C(=O)/C=C/c2ccccc2)c(OC)c1 [Flavokawain B]
Yeast expressing ExoS
  restoration of growth of yeast expressing ExoS (in words): restore yeast growth

## CCC1CN(C(=O)Nc2ccc(C)cc2)c2cc(Cl)ccc2O1 (stereo not shown) [exosin-5138]
ExoS ADPRT activity
  IC50: 12 µM

## CCC1CN(C(=O)Nc2ccc(C)cc2)c2ccccc2O1 (stereo not shown) [exosin-5316]
ExoS ADPRT activity
  IC50: 63 µM

## CCC1CN(C(=O)Nc2cccc3c2CCCC3)c2ccccc2O1 (stereo not shown) [exosin-5340]
ExoS ADPRT activity
  IC50: 129 µM
Yeast expressing ExoS
  restoration of growth of yeast expressing ExoS (in words): no protective effect

## CCc1ccc(NC(=O)N2CC(CC)Oc3ccccc32)cc1 (stereo not shown) [exosin]
ExoS ADPRT activity
  Ki: 33 ± 3 µM
  mode of inhibition of ExoS ADPRT: competitive inhibitor
ADPRT activity of ExoA
  IC50: 17 µM
Yeast expressing ExoS
  restoration of growth of yeast expressing ExoS (in words): restore yeast growth
